“And” between values parts separate entries of the source, which are not always exact repeats. Equal values may be shown once.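 Step 1: Grow cells in 96-well plates. Step 2: Expose to compound for 48 hours at 5 concentrations. Step 3: Interpolate endpoints linearly; if unreached, use highest concentration. At the GI50, growth is halved. TGI marks complete inhibition of growth.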 Some results are limits rather than exact numbers.

Some test systems named below: UACC-257 melanoma; KM20L2 colon; M19-MEL melanoma; ACHN renal; SK-OV-3 ovarian; 786-0 renal; UACC-62 melanoma; HOP-62 NSCLC; DMS 114 small cell lung; HS 578T breast.
Assay in all cases: inhibition of tumour cell growth, NCI panel, 48 h

In the case of `CCCCN=C(NC#N)N(Cc1ccccc1)Cc1ccccc1`, the TGI in the test with UACC-257 melanoma is 64.9 µM; in the test with KM20L2 colon it was 52.4 µM; in the test on M19-MEL melanoma, 35.8 µM; with ACHN renal, 98.8 µM; in the test with SK-OV-3 ovarian, 87.6 µM; with 786-0 renal it was above 100 µM. The TGI in the test with UACC-62 melanoma is 34.8 µM; in the test with HOP-62 NSCLC, 62 µM.
Take `O=c1cc(-c2ccccc2)[nH]c2c(Cl)cccc12`: the TGI is above 100 µM with DMS 114 small cell lung; above 100 µM with UACC-257 melanoma; 36 µM in the test with KM20L2 colon; above 100 µM in the test on M19-MEL melanoma; above 100 µM in the test on ACHN renal; above 100 µM with 786-0 renal. In addition, the values for the TGI in the test with UACC-62 melanoma and with HOP-62 NSCLC were 67.3 µM and above 100 µM, respectively.
With `CCCCCCCCC(O)C#CC(N)=O` (configuration not stated), the TGI stood at 17.9 µM in the test on DMS 114 small cell lung; 26.9 µM in the test on UACC-257 melanoma; 35.1 µM in the test on KM20L2 colon; 24.4 µM in the test on M19-MEL melanoma; 31 µM in the test on ACHN renal; 25.3 µM in the test with 786-0 renal. In addition, the TGI in the test with UACC-62 melanoma was found to be 19.9 µM.
As to `CC(=O)OC(C)(C)/C=C/C(=O)[C@](C)(O)[C@H]1[C@H](O)C[C@@]2(C)[C@@H]3CC=C4[C@@H](C[C@H](O)C(=O)C4(C)C)[C@]3(CO)C(=O)C[C@]12C`, the GI50 with DMS 114 small cell lung is 0.248 µM; in the test with UACC-257 melanoma it was 0.284 µM; with M19-MEL melanoma, 0.298 µM; in the test with SK-OV-3 ovarian, 0.333 µM; in the test with 786-0 renal it was 0.2 µM; in the test on UACC-62 melanoma it was 0.127 µM. Moreover, the TGI in the test with DMS 114 small cell lung is 15.3 µM; in the test with UACC-257 melanoma, 0.943 µM and 6.36 µM; with M19-MEL melanoma, 29.9 µM; in the test with ACHN renal, 0.882 µM and 0.844 µM; with 786-0 renal, 0.889 µM and 0.475 µM; in the test with UACC-62 melanoma, 15.8 µM. Besides, in the test on HOP-62 NSCLC, the TGI was 0.528 µM and 0.482 µM.
As for `CCOC(=O)[C@H]1CSC[C@@H](C(=O)OC)N1`, the TGI in the test with DMS 114 small cell lung, in the test on UACC-257 melanoma, with M19-MEL melanoma, in the test with ACHN renal, in the test on SK-OV-3 ovarian and with 786-0 renal was above 100 µM each time. The TGI in the test on UACC-62 melanoma and in the test with HOP-62 NSCLC was above 100 µM throughout.
As for `CC(C)N1CCC2(CC1)NNc1ncccc1-n1cccc12`, the TGI in the test on DMS 114 small cell lung, in the test with UACC-257 melanoma, with M19-MEL melanoma, in the test with ACHN renal, in the test on 786-0 renal and in the test with HOP-62 NSCLC was above 100 µM each time.
For `COC1=C2C[C@H](O)C(C)C[C@@]2(OC)OC1=O` (some centres not stated), the TGI in the test with UACC-257 melanoma, in the test with M19-MEL melanoma, with SK-OV-3 ovarian, with 786-0 renal, in the test with UACC-62 melanoma and in the test on HOP-62 NSCLC was above 100 µM in each case.
Take `O=C1C2CC=CCC2C(=O)C12CCc1ccccc12` (configuration not stated): the TGI with KM20L2 colon, in the test with M19-MEL melanoma, with ACHN renal, with SK-OV-3 ovarian, in the test with 786-0 renal and with UACC-62 melanoma was above 100 µM each time. Moreover, the TGI with HOP-62 NSCLC was above 100 µM.
Take `NC(CC(=O)Nc1ccc(Cl)cc1)=Nc1ccccc1`: the TGI in the test with UACC-257 melanoma, with KM20L2 colon, in the test with M19-MEL melanoma, in the test with ACHN renal, in the test on SK-OV-3 ovarian and in the test with 786-0 renal was above 100 µM throughout. Moreover, the TGI in the test on UACC-62 melanoma and with HOP-62 NSCLC was above 100 µM throughout.
On to `C/C(CC(=O)Nc1ccc(Cl)cc1)=N\NC(=O)C[n+]1ccccc1`, for which the TGI with DMS 114 small cell lung, in the test on UACC-257 melanoma, in the test with KM20L2 colon, in the test with ACHN renal, in the test with SK-OV-3 ovarian and in the test on 786-0 renal was above 100 µM in each case. The TGI in the test on UACC-62 melanoma and in the test with HOP-62 NSCLC was above 100 µM in each case.
In the case of `O=c1nc(NC(c2ccccc2)(c2ccccc2)c2ccccc2)ccn1CCO`, the TGI in the test on DMS 114 small cell lung, with UACC-257 melanoma, with KM20L2 colon, in the test on ACHN renal, with 786-0 renal and in the test with HOP-62 NSCLC was above 100 µM in each case.
For `COc1cc(C=O)c(-c2cc3c(cc2C2(C)OCCS2)OCO3)c(OC)c1OC` (configuration not stated), the TGI with DMS 114 small cell lung is 71.8 µM; with UACC-257 melanoma, 43.4 µM; in the test with KM20L2 colon it was 9.17 µM; in the test with ACHN renal, above 99.1 µM; in the test with SK-OV-3 ovarian, above 239 µM; in the test with 786-0 renal, 23.6 µM. Also, the TGI stood at 61.4 µM with UACC-62 melanoma and 47.1 µM in the test on HOP-62 NSCLC.
Regarding `Cc1ccc(C(=O)/C(=C\c2ccc([N+](=O)[O-])cc2)S(=O)Cc2ccc(F)cc2)cc1` (configuration not stated), the GI50 in the test with UACC-257 melanoma was 1.93 µM; with HS 578T breast, 2.87 µM; with ACHN renal, 1.86 µM; with SK-OV-3 ovarian, 10.8 µM; with 786-0 renal, 1.37 µM; in the test with UACC-62 melanoma, 1.53 µM. Further, in the test on HOP-62 NSCLC, the GI50 was 2.35 µM. Besides, the TGI in the test on UACC-257 melanoma turned out to be 3.69 µM; with HS 578T breast, 8.76 µM; in the test with ACHN renal, 3.6 µM; with SK-OV-3 ovarian, 23.2 µM; with 786-0 renal, 2.68 µM; in the test on UACC-62 melanoma, 2.97 µM. The TGI with HOP-62 NSCLC was 6.3 µM.

The record behind these values is PubChem BioAssay (NCI).
